Several values for one entry are separate records, joined by “and”; a condition that tells them apart may be missing. Equal values may be shown once.
Assays:
[1] = tested on: ANME-SRB consortia; assay: FISH-nanoSIMS 15N incorporation (anabolic activity) of ANME-SRB consortia; type: cell-based, ANME-2c archaea and Desulfobacteraceae
Method: Incubations for FISH-nanoSIMS and RNA analysis. For AOM incubations with sulfate or AQDS that were used for nanoSIMS (FIG. 7 and FIG. 8A) and RNA analysis (FIG. 6), incubations experiments were set up following the AOM-rate measurements described above (initially containing 1.0 mM ammonium without ^15N label). Methane oxidation rates were tracked in these incubations via the ^13C label. After 11 days, ca. 3.5 mL of supernatant remained in the serum bottles to which 3.0 mL artificial seawater without ammonium containing either 25 mM AQDS, 28 mM sulfate, or no oxidant or electron acceptor was added. Next, 0.1 mL ^15NH4^+ (100 mM) was injected to yield about 2.0 mM ammonium with ca. 75% ^15N. Methane oxidation was monitored. After additional 8 days, the medium of the AQDS incubations was exchanged by 5.0 mL new medium containing 25 mM AQDS and 2.0 mM ^15NH4^+. Now the AQDS incubations contained ca. 95% ^15NH4^+ in the ammonium pool. The cultures were incubated for additional 10 days before harvest. Total incubation time with labeled ammonium: 18 days. Average labeling strength: ca. 75% for sulfate and no oxidant or electron acceptor control; ca. 86% for the AQDS incubations.
For the second independent set of experiments with iron citrate, humic acids and sulfate (FIG. 8B), the medium contained 1.0 mM ammonium with ca. 40% ^15N label throughout the incubation period. These experiments were carried out from identical incubations that were for the AOM rate measurements (highlighted in Table 4). In regards to Table 4, the percentage AOM rates are reported relative to sulfate-coupled AOM (1.50 μmol cm^−3 day^−1). Top: Summary of compounds described in FIG. 1B; Bottom: Oxidants or electron acceptors resulting in an AOM rate less than 0.10 μmol […] day^−1 (<7% rel. to sulfate as oxidant or electron acceptor).
Sampling for FISH-nanoSIMS and RNA. After an 18-day incubation in the presence of ^15NH4^+, each incubation was shaken to suspend the sediment and 1.0 mL sediment slurry was sampled using a disposable sterile needle and syringe (ca. 0.3 mL wet sediment). […]
Sample preparation for aggregate embedding, sectioning, FISH, and nanoSIMS. […] Sections of ca. 1 μm thickness were cut and stretched on a water droplet on a polylysine coated slide with teflon wells (Tekdon Inc) and analyzed by fluorescence in situ hybridization (FISH). […]
FISH conditions and probes. The FISH hybridization on thin sections of resin embedded microbial aggregates followed the recently optimized protocol described in S. E. McGlynn et al. The phylogenetic identity of microorganisms in the thin sections were determined using conventional FISH using oligonucleotide probes fluorescently labeled on both the 5′ and 3′ ends (dual labeled) as outlined herein. […]

[2] = tested on: methane seep sediment (ANME archaea); assay: AOM rate measurement via 13C-methane (newly formed DIC) in methane seep sediment incubations; type: cell-based, ANME-2a and ANME-2c; settings: 22.5° C.
[3] = tested on: methane seep sediment (ANME archaea); assay: Quantification of reduced AQDS by iodometry in AOM incubations; type: cell-based, ANME-2a and ANME-2c; settings: after 21-day incubation
Method: Quantification of reduced AQDS by iodometry. Reduced AQDS (2,6-AQH2DS) was quantified via iodimetric titration in the anaerobic chamber. A standard solution of ca. 20 mM KI3 was prepared as follows: iodine (254 mg, 2.0 mmol) and potassium iodide (1.66 g, 10 mmol) were dissolved in 100 mL DI water. After 2 days, the clear, dark solution was N2-sparged and brought into the anaerobic chamber. The exact concentration of the KI3 standard solution was quantified to be 19.5 mM via duplicate titration with sodium thiosulfate (exactly 101.5 mM, N2-sparged). Procedure for the quantification of reduced AQDS in the incubations: 1000 μL anaerobic assay solution centrifuged in the anaerobic chamber+200 μL anaerobic HEPES (1.0 M, pH=7.5)+KI3 standard solution as needed until color minimum, added in steps of 100 μL first, then in steps of 10 μL when closer to the equivalence point.

O=C1c2ccc(S(=O)(=O)O)cc2C(=O)c2ccc(S(=O)(=O)O)cc21 [AQDS, 9,10-anthraquinone-2,6-disulfonate]
doubling time of ANME cells based on average 15N-incorporation ([1]; 18 days with 15NH4+): 3.3 months
anabolic activity within ANME-SRB consortia ([1]; sulfate-free incubations): occurred only in the ANME archaea
AOM rates compared with sulfate [2]: exceeded
AQH2DS (final concentration of reduced AQDS) ([3]; AQDS 10 mM + MoO4^2− 25 mM): 9.2 mM and 9.8 mM
AQH2DS (final concentration of reduced AQDS) ([3]; AQDS 10 mM): 8.6 mM and 9.6 mM

Reference: US10011813B2, “Methane oxidation methods and compositions” (California Institute of Technology, priority 2015, dated 2018)
